These results are taken from paper PMC5128008, “Antimicrobial activity and stability of the D-amino acid substituted derivatives of antimicrobial peptide polybia-MPI” (AMB Express, 2016).

Where a SMILES comes first, the peptide text is derived from it. Where no end group is shown, it is not given here. [ ]: non-standard residue; d: D form.

Series [1] relates to chymotrypsin. Kind of series: Viability assay: antimicrobial activity against E. coli after chymotrypsin treatment (Fig. 5). The format is in vitro ADME. Particulars: 37 °C, then E. coli at MIC, OD 600 nm.
Series [2] relates to trypsin. The series is described as follows: Radial diffusion assay after trypsin pre-incubation. The format is in vitro ADME. Particulars: pre-incubation 4 h 37 °C, plates 18–24 h 37 °C, Fig. 6. The protocol: The enzymatic stability of Polybia-MPI and its analogues was evaluated by a modification of the sensitive radial diffusion assay. The bacteria were cultured until the optical density at 600 nm (OD600) of an aliquot reached 0.5. One milliliter of the bacteria suspension was added to 100 ml of previously autoclaved, warm Mueller–Hinton agar (MHA)/Sabouraud dextrose agar. The medium were poured into layer of a 5 mm deep. Wells were performed with a sterile plastic bore of a 3-mm-diameter gel punch. Following the addition of 20 µl pre-incubated mixture of peptides and different concentrations of trypsin or chymotrypsin for 4 h into wells. The plates were incubated at 37 °C for 18 to 24 h. An equal volume of 20 µl mixture had no trypsin or chymotrypsin was used as the control. The size of the clear zones surrounding each well as indicators of the enzymatic stability of Polybia-MPI and its analogues.
Fig. 6 The viability of bacteria/fungi after incubation with peptides in the presence/absence of enzyme. Each peptide was pre-incubated with different concentrations of chymotrypsin (a) or trypsin (b) at 37 °C for 4 h. Then the samples were heat inactivated and poured into wells of plates. The plates were incubated at 37 °C for 18–24 h. Controls were without trypsin or chymotrypsin

Series [3] concerns trypsin. The series is described as follows: Bactericidal activity after trypsin treatment, colony plates (Fig. 4). Particulars: peptide with trypsin 4 h 37 °C, enzyme heat inactivated at 60 °C, E. coli co-incubated 3 h, plated 24 h.
Procedure: To test the stability of polybia-MPI and D-MPI, first 1 mg/l of the peptides were incubated with trypsin and chymotrypsin for 4 h for degradation. After the enzyme was heat inactivated at 60 °C for 15 min, E. coli was added and co-incubated for 3 h. Then, the treated bacteria were coated to plate and incubated at 37 °C for 24 h.
Peptides were incubated with the same volume of PBS (Left) or trypsin (Right) at 37 °C for 4 h. The enzyme was heat inactivated at 60 °C for 20 min, and E. coli suspension was added and co-incubated for 3 h. Then, the mixtures were plated onto MH broth ager and incubated for 18–24 h. Pictures of each plate were photographed
For series [4], the system named is all tested bacterial and fungal strains. Kind of series: MIC, broth microdilution, summary over the panel. The format is cell-based. Particulars: summary of Table 1, "almost in the range". The method, then:
The minimal inhibitory concentration (MIC) of the peptides was measured in triplicate by the standard broth microdilution method (Peterson et al. [1980]; Wang et al. [2012]). In brief, bacteria/fungi were cultured overnight to mid-logarithmic-phase in Mueller–Hinton broth (MHB)/Sabouraud dextrose broth. The cultures were diluted to a final concentration of 2 × 10^4 cfu/ml in fresh Mueller–Hinton broth (MHB)/Sabouraud dextrose broth. Each well of 96-well propylene microtitre plates was filled with 100 µl cell suspension and 100 μl peptide solution of twofold diluted serially. And the final concentrations of peptide mixtures ranged from 1 to 256 µM. Controls were done without peptides. After 18 h of incubation at 37 °C (bacteria)/35 °C (fungi), the minimal inhibitory concentration (MIC) of the peptides was evaluated by visible turbidity in each well.
For orientation: In broth dilution the organism is exposed to a series of concentrations in liquid medium.

Regarding IDWKKLLDAAKQIL-NH2 [Polybia-MPI], the “chymotrypsin concentration that totally inhibits the antimicrobial activity of the peptide” value in series [1] (incubation 1 h) was 0.002 mg/mL. Besides, the “inhibition zone diameters after incubation with trypsin” value in series [2] (0.02–2 mg/ml trypsin) is “decreased even disappeared”. Also, in series [3], the “E. coli colonies on plate after treatment with trypsin-incubated peptide” value was “many colonies”.

Turning to `CC[C@@H](C)[C@@H](N)C(=O)N[C@H](CC(=O)O)C(=O)N[C@H](Cc1c[nH]c2ccccc12)C(=O)N[C@H](CCCCN)C(=O)N[C@H](CCCCN)C(=O)N[C@H](CC(C)C)C(=O)N[C@H](CC(C)C)C(=O)N[C@H](CC(=O)O)C(=O)N[C@H](C)C(=O)N[C@H](C)C(=O)N[C@H](CCCCN)C(=O)N[C@H](CCC(N)=O)C(=O)N[C@@H](C(=O)N[C@H](CC(C)C)C(N)=O)[C@H](C)CC` [D-MPI] (H-[dI][dD][dW][dK][dK][dL][dL][dD][dA][dA][dK][dQ][dI][dL]-NH2), the “antimicrobial activity after incubation with chymotrypsin” value in series [1] (2 mg/ml chymotrypsin, 6 h) is given as “retained its antimicrobial activity”. The “MIC values, range over all tested bacterial and fungal strains” value in series [4] lay within 8 to 64 µM. The “inhibition zone diameters after incubation with trypsin” value in series [2] (2 mg/ml trypsin) was “almost the same as control”. The “E. coli colonies on plate after treatment with trypsin-incubated peptide” value in series [3] was “no colony”.
